# Measured values taken from patent US6380178B1, “Cyclic regimens using cyclocarbamate and cyclic amide derivatives” (American Home Products Corporation, priority 1999, dated 2002).
row,melting point [°C],Compound
1,149 to 150,"CC1(C)OC(=O)Nc2sc(-c3cccc(Cl)c3)cc21 [Example 1, 6-(3-chlorophenyl)-1,4-dihydro-4,4-dimethyl-2H-thieno[2,3-d][1,3]oxazine-2-one]"
2,123 to 125,"CC1(C)OC(=O)Nc2cc(-c3cccc(Cl)c3)sc21 [Example 2, 6-(3-chlorophenyl)-1,4-dihydro-4,4-dimethyl-2H-thieno[3,2-d][1,3]oxazine-2-one]"
